According to patent publication US20250171495A1, “MUTLI-TARGETED SERINE PROTEASE INHIBITORS FOR TREATMENT OF CANCER AND VIRAL INFECTION” (Washington University, priority 2023, published 2025):
pIC50: −log10 of the molar value. Like-named read-outs stand apart in the source and are kept apart here.

Experiments:
Assay type in all cases: biochemical
matriptase = molecular target: T1, matriptase (Homo sapiens, UniProt Q9Y5Y6); assay: Fluorogenic kinetic enzyme inhibitor assay, matriptase
T1 construct: purchased R&D Systems 3946-SEB-010
T1 sequence (Q9Y5Y6 615-855 limits assumed): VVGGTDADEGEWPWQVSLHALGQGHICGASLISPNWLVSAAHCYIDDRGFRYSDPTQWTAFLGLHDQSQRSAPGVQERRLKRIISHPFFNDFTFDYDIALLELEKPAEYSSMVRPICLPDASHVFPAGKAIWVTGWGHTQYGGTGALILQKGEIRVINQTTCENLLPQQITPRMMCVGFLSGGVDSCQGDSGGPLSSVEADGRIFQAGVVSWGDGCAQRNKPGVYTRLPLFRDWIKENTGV

Factor Xa = molecular target: T2, Factor Xa (Homo sapiens, UniProt P00742); assay: Fluorogenic assay, Factor Xa; settings: read-out: Factor Xa IC50
T2 construct: TMPRSS2; Matriptase; Hepsin; HGFA; Thrombin; Factor Xa
T2 sequence (P00742 235-488 limits assumed): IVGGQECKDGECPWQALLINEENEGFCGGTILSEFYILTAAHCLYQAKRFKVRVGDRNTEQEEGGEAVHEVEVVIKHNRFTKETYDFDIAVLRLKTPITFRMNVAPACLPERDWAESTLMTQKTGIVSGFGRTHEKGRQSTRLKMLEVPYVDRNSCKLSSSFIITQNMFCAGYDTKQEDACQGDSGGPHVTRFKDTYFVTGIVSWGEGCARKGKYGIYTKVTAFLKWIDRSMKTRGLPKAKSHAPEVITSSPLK
T2 sequence (P00742 41-179 partner limits assumed): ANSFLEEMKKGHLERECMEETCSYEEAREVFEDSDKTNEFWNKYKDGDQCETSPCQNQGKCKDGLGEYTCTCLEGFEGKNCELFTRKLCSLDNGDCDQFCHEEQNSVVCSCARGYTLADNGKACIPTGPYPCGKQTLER

Thrombin = Thrombin (Homo sapiens, UniProt P00734); assay: Fluorogenic assay, thrombin
hepsin = molecular target: T3, hepsin (Homo sapiens, UniProt P05981); assay: Fluorogenic kinetic enzyme inhibitor assay, hepsin
T3 construct: purchased R&D Systems 4776-SE-010
T3 sequence (P05981 163-417 limits assumed): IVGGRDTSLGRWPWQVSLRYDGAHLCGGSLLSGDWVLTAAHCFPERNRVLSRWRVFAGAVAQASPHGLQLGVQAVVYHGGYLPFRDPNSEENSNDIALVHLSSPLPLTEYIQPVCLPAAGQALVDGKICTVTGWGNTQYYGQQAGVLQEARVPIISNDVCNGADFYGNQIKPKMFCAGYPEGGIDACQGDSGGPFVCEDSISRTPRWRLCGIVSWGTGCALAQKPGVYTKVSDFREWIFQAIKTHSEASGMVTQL
T3 sequence (P05981 1-162 partner limits assumed): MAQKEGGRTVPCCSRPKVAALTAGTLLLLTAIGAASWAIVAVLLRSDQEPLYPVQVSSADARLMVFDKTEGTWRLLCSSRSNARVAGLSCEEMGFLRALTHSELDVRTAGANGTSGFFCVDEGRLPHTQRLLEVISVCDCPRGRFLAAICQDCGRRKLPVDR

TMPRSS2 = TMPRSS2 (Homo sapiens, UniProt O15393); assay: Fluorogenic kinetic enzyme inhibitor assay, TMPRSS2; set-up: purchased Cusabio Technology CSB-YP023924HU; settings: read-out: TMPRSS2 IC50
Sequence of TMPRSS2 (O15393 106-492 limits assumed): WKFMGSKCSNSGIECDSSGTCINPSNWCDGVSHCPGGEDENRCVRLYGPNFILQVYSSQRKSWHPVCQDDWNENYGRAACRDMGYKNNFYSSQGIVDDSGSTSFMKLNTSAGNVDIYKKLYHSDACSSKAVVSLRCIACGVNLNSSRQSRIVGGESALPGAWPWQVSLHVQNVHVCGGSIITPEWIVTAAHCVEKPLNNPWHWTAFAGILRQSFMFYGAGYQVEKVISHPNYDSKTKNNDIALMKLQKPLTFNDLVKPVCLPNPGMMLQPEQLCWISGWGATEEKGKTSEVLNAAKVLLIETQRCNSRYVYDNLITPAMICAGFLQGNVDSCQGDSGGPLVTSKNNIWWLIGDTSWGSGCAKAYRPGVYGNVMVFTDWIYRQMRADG

HGFA = molecular target: T4, HGFA (Homo sapiens, UniProt Q04756); assay: Fluorogenic kinetic enzyme inhibitor assay, HGFA
T4 construct: purchased R&D Systems 1514-SE-010
T4 sequence (Q04756 408-655 limits assumed): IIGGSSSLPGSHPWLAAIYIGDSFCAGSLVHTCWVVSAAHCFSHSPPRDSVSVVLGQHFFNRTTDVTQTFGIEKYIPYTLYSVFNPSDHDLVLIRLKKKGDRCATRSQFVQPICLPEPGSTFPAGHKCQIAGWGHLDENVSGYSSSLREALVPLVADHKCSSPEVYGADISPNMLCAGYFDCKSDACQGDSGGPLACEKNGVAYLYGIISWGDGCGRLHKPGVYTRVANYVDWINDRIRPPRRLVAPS
T4 sequence (Q04756 373-407 partner limits assumed): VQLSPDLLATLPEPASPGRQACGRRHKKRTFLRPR

[1] = 30 min incubation, Boc-QAR-AMC at Km, read-out: Hepsin IC50
[2] = 30 min incubation, Boc-QLR-AMC at Km, read-out: HGFA IC50
[3] = 30 min incubation, Boc-QAR-AMC at Km, read-out: Matriptase IC50
[4] = 30 min incubation, Boc-QAR-AMC at Km

Compound | pIC50 (matriptase; read-out: Matriptase IC50) | pIC50 (Factor Xa) | pIC50 (Thrombin) | pIC50 (hepsin; [1]) | pIC50 (TMPRSS2) | pIC50 (HGFA; [2]) | pIC50 (matriptase) | pIC50 (hepsin; read-out: Hepsin IC50) | pIC50 (HGFA; read-out: HGFA IC50) | pIC50 (hepsin) | pIC50 (HGFA) | pIC50 (matriptase; [3]) | pIC50 (TMPRSS2; [4])
CSCC[C@@H]1NC(=O)[C@@H](NC(C)=O)CC(=O)NCCCC[C@@H](C(=O)N[C@@H](CCCNC(=N)N)C(=O)c2nc3ccccc3s2)NC1=O [VD3173, N-[(S)-1-[(1,3-benzothiazol-2-yl)carbonyl]-4-guanidinobutyl]-(3S,6S,14S)-6-acetylamino-3-[2-(methylthio)ethyl]-2,5,8-trioxo-1,4,9-triaza-14-cyclotetradecanecarboxamide] | 9.00 | 5.86 | 4.73 | 8.23 | 9.40 | 5.49 |  |  |  |  |  |  | 
CC(=O)N[C@H]1Cc2ccc(cc2)OC/C=C\C[C@@H](C(=O)N[C@@H](CCCNC(=N)N)C(=O)c2nc3ccccc3s2)NC(=O)[C@H](CC(C)C)NC1=O [VD4010, N-[(S)-1-[(1,3-benzothiazol-2-yl)carbonyl]-4-guanidinobutyl]-(4Z,7S,10S,13S)-13-acetylamino-10-isobutyl-9,12-dioxo-2-oxa-8,11-diazabicyclo[13.2.2]nonadeca-1(17),4,15,18-tetraene-7-carboxamide] |  | 6.91 | < 4.70 |  | 8.92 |  | 8.47 | 9.77 | 7.28 |  |  |  | 
CC(=O)N[C@H]1C/C=C\COc2ccc(cc2)C[C@@H](C(=O)N[C@@H](CCCNC(=N)N)C(=O)c2nc3ccccc3s2)NC(=O)[C@H](CC(C)C)NC1=O [VD4051, N-[(S)-1-[(1,3-benzothiazol-2-yl)carbonyl]-4-guanidinobutyl]-(4Z,7S,10S,13S)-7-acetylamino-10-isobutyl-8,11-dioxo-2-oxa-9,12-diazabicyclo[13.2.2]nonadeca-1(17),4,15,18-tetraene-13-carboxamide] |  | 5.06 | < 4.70 |  | 7.85 |  | 7.85 |  |  | 7.70 | < 4.70 |  | 
CC(=O)N[C@H]1Cc2ccc(cc2)OCCCC[C@@H](C(=O)N[C@@H](CCCNC(=N)N)C(=O)c2nc3ccccc3s2)NC(=O)[C@H](CC(C)C)NC1=O [VD4072, N-[(S)-1-[(1,3-benzothiazol-2-yl)carbonyl]-4-guanidinobutyl]-(7S,10S,13S)-13-acetylamino-10-isobutyl-9,12-dioxo-2-oxa-8,11-diazabicyclo[13.2.2]nonadeca-1(17),15,18-triene-7-carboxamide] |  | 5.58 | < 4.70 | 9.04 |  | 7.40 |  |  |  |  |  | 7.49 | 8.01
CC(=O)N[C@H]1CCCCn2cc(nn2)C[C@H](C(=O)N[C@@H](CCCNC(=N)N)C(=O)c2nc3ccccc3s2)NC(=O)[C@H](CC(C)C)NC1=O [VD4118B, N-[(S)-1-[(1,3-benzothiazol-2-yl)carbonyl]-4-guanidinobutyl]-(6S,9S,12R)-6-acetylamino-9-isobutyl-7,10-dioxo-1,8,11,15,16-pentaazabicyclo[12.2.1]heptadeca-14(17),15-diene-12-carboxamide] |  | 5.02 | < 4.70 | 6.86 |  | 4.96 |  |  |  |  |  | 7.04 | 7.83
CC(=O)N[C@H]1Cc2ccc(cc2)OCCCC[C@@H](C(=O)N[C@@H](CCCNC(=N)N)C(=O)c2nc3ccccc3s2)NC(=O)[C@H](Cc2c[nH]c3ccccc23)NC1=O [VD4158, N-[(S)-1-[(1,3-benzothiazol-2-yl)carbonyl]-4-guanidinobutyl]-(7S,10S,13S)-13-acetylamino-10-[(3-indolyl)methyl]-9,12-dioxo-2-oxa-8,11-diazabicyclo[13.2.2]nonadeca-1(17),15,18-triene-7-carboxamide] |  | 5.02 | < 4.70 |  |  | 7.07 |  |  |  | 8.55 |  | 7.25 | 7.80
